In US12661410B2, “Compounds for targeted degradation of RET” (C4 Therapeutics, Inc., priority 2020, dated 2026):
Numbering of substitutions follows the chain as printed. Read-outs that look alike come from different tables or passages of the source.

What was measured:
[1] = biological target: T1, RET(KD: 658-1114 G810R) (Homo sapiens, UniProt P07949, G810R); experiment: HiBiT-Degradation, RET G810R degradation assay (Nano-Glo HiBiT Lytic), 293T.165 cells; format: cell-based; conditions: for Emax / DC50: 6.0 hours; for Emax: % remaining protein, read-out: 293T.165 RET(KD: 658-1114 G810R) 6.0 hours (Emax); for DC50: read-out: 293T.165 RET(KD: 658-1114 G810R) 6.0 hours (DC50)
T1 construct: 658-1114; expressed in transfected cells; host or cells: 293T.165 (293T cells, generated in-house)
T1 sequence (P07949 658-1114 G810R): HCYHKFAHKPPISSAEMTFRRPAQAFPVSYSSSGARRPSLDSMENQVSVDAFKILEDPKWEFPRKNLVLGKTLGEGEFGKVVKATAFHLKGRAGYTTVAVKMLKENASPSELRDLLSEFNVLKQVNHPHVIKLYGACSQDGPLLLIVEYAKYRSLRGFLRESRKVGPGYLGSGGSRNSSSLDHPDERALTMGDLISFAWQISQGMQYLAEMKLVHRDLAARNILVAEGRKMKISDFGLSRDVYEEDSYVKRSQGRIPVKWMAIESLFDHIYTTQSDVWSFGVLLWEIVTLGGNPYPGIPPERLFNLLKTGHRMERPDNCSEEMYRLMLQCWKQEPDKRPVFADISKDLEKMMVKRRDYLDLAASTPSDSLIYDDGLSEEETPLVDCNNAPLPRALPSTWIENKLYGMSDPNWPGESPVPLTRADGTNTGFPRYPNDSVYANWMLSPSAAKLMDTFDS
How it was run: (§1)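 HEK293T lines stably expressing HiBiT-tagged RET kinase domain (WT: 293T.144; G810R: 293T.165) were treated with degraders for 6 h in duplicate, 11-point half-log series from 10 μM top dose. Lysis with Nano-Glo HiBiT Lytic reagent, luminescence read; DC50 and Emax (% remaining protein) derived from dose-response curves.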

[2] = biological target: T2, RET (658-1114) (Homo sapiens, UniProt P07949); experiment: HiBiT-Degradation, RET wild-type degradation assay (Nano-Glo HiBiT Lytic), 293T.144 cells; format: cell-based; conditions: for DC50 / Emax: 6.0 hours; for DC50: read-out: 293T.144 RET (658-1114) 6.0 hours (DC50); for Emax: read-out: 293T.144 RET (658-1114) 6.0 hours (Emax)
T2 construct: 658-1114; expressed in transfected cells; host or cells: 293T.144 (293T cells, generated in-house)
T2 sequence (P07949 658-1114): T1 sequence (P07949 658-1114 G810R) with R153G
How it was run: as §1

[3] = half-maximal degradation concentration

Compound | Emax [1] [%] | DC50 [1, 3] [nM] | 293T.165 RET(KD: 658-1114 G810R) 6.0 hours (Emax) ([1]; HiBiT-Degradation) | 293T.165 RET(KD: 658-1114 G810R) 6.0 hours (IP) [nM] ([1]; HiBiT-Degradation) | DC50 ([1]; HiBiT-Degradation) [nM] | 293T.144 RET (658-1114) 6.0 hours (IP) [nM] ([2]; HiBiT-Degradation) | DC50 ([2]; HiBiT-Degradation) [nM] | Emax ([2]; HiBiT-Degradation) [%] | 293T.165 RET(KD: 658-1114 G810R) 6.0 hours (IP) [nM] [1] | 293T.144 RET (658-1114) 6.0 hours (IP) [nM] [2] | Emax ([2]; % remaining protein) [%] | DC50 [2, 3] [nM]
CCC1(C(=O)NC(C)C)CCN(c2ccc(-c3cc(-c4cnn(C5CCN(C(=O)CN6CCC(c7ccc(NC8CCC(=O)NC8=O)cc7F)CC6)CC5)c4)cn4ncc(C#N)c34)cn2)CC1 (stereo not drawn) [Compound 3, 1-(5-(3-Cyano-6-(1-(1-(2-(4-(4-((2,6-dioxopiperidin-3-yl)amino)-2-fluorophenyl)piperidin-1-yl)acetyl)piperidin-4-yl)-1H-pyrazol-4-yl)pyrazolo[1,5-a]pyridin-4-yl)pyridin-2-yl)-4-ethyl-N-isopropylpiperidine-4-carboxamide] | < 30 | < 50 | ++++ (< 30% = ++++) | ++++ (< 50 nM = ++++) | < 50 | ++++ (< 50 nM = ++++) | < 50 | < 30 | – | – | – | –
N#Cc1cnn2cc(-c3cnn(C4CCN(C(=O)CN5CCC(c6ccc(NC7CCC(=O)NC7=O)cc6F)CC5)CC4)c3)nc(-c3ccc(N4CCN(Cc5ccccn5)CC4)cc3)c12 (stereo not drawn) [Compound 61, 6-[1-[1-[2-[4-[4-[(2,6-dioxo-3-piperidyl)amino]-2-fluoro-phenyl]-1-piperidyl]acetyl]-4-piperidyl]pyrazol-4-yl]-4-[4-[4-(2-pyridylmethyl)piperazin-1-yl]phenyl]pyrazolo[1,5-a]pyrazine-3-carbonitrile] | < 50 | < 100 | +++ (<50% = +++) | ++++ (< 50 nM = ++++) | < 100 | ++++ (< 50 nM = ++++) | < 50 | < 30 | – | – | – | –
CCC1(C(=O)NC(C)C)CCN(c2ncc(-c3nc(-c4cnn(C5CCN(C(=O)CC6(O)CCN(c7ccc(NC8CCC(=O)NC8=O)cc7F)CC6)CC5)c4)cn4ncc(C#N)c34)cc2F)CC1 (stereo not drawn) [Compound 119, 1-(5-(3-cyano-6-(1-(1-(2-(1-(4-((2,6-dioxopiperidin-3-yl)amino)-2-fluorophenyl)-4-hydroxypiperidin-4-yl)acetyl)piperidin-4-yl)-1H-pyrazol-4-yl)pyrazolo[1,5-a]pyrazin-4-yl)-3-fluoropyridin-2-yl)-4-ethyl-N-isopropylpiperidine-4-carboxamide] | < 50 | < 100 | – | – | – | – | – | – | ++++ (<50 nM = ++++) | ++++ (<50 nM = ++++) | < 30 | < 50
N#Cc1cnn2cc(-c3cnn([C@H]4CC[C@H](N5CCC(c6ccc(NC7CCC(=O)NC7=O)cc6F)CC5)CC4)c3)nc(-c3ccc(N4CCC5(CC4)OCc4cccnc45)nc3)c12 (single isomer, unassigned) [Compound 148, 4-(6-(5H-Spiro[furo[3,4-b]pyridine-7,4′-piperidin]-1′-yl)pyridin-3-yl)-6-(1-((1r, 4r)-4-(4-(4-((2,6-dioxopiperidin-3-yl)amino)-2-fluorophenyl)piperidin-1-yl)cyclohexyl)-1H-pyrazol-4-yl)pyrazolo[1,5-a]pyrazine-3-carbonitrile] | < 30 | < 50 | – | – | – | – | – | – | ++++ (<50 nM = ++++) | ++++ (<50 nM = ++++) | < 30 | < 50
CCC1(C(=O)NC(C)C)CCN(c2ccc(-c3cc(-c4cnn(C5CCN(C(=O)CN6CCN(c7ccc(NC8CCC(=O)NC8=O)cc7F)CC6)CC5)c4)cn4ncc(C#N)c34)cn2)CC1 (stereo not drawn) [Compound 66, 1-[5-[3-cyano-6-[1-[1-[2-[4-[4-[(2,6-dioxo-3-piperidyl)amino]-2-fluoro-phenyl]piperazin-1-yl]acetyl]-4-piperidyl]pyrazol-4-yl]pyrazolo[1,5-a]pyridin-4-yl]-2-pyridyl]-4-ethyl-N-isopropyl-piperidine-4-carboxamide] | < 30 | < 50 | ++++ (< 30% = ++++) | ++++ (< 50 nM = ++++) | < 50 | ++++ (< 50 nM = ++++) | < 50 | < 30 | – | – | – | –
COc1ccc(CC2(C(=O)NC(C)C)CCN(c3ccc(-c4nc(-c5cnn([C@H]6CC[C@H](N7CCN(c8cc(OC)c(NC9CCC(=O)NC9=O)cc8F)CC7)CC6)c5)cn5ncc(C#N)c45)cn3)CC2)nc1 (stereo partly drawn) [Compound 216, 1-[5-[3-cyano-6-[1-[4-[4-[4-[(2,6-dioxo-3-piperidyl)amino]-2-fluoro-5-methoxy-phenyl]piperazin-1-yl]cyclohexyl]pyrazol-4-yl]pyrazolo[1,5-a]pyrazin-4-yl]-2-pyridyl]-N-isopropyl-4-[(5-methoxy-2-pyridyl)methyl]piperidine-4-carboxamide] | < 30 | < 100 | – | – | – | – | – | – | +++ (<100 nM = +++) | ++++ (<50 nM = ++++) | < 30 | < 50
COc1ccc(CN2[C@@H]3COC[C@H]2CN(c2ccc(-c4nc(-c5cnn([C@H]6CC[C@@H](N7CCN(c8cc9c(cc8F)c(N8CCC(=O)NC8=O)nn9C)CC7)CC6)c5)cn5ncc(C#N)c45)cn2)C3)cn1 (single isomer, unassigned) [Compound 152] | < 30 | < 50 | – | – | – | – | – | – | ++++ (<50 nM = ++++) | ++++ (<50 nM = ++++) | < 30 | < 50
CCC1(C(=O)NC2CCC2)CCN(c2ccc(-c3nc(-c4cnn([C@H]5CC[C@H](N6CCC(c7ccc8c(N9CCC(=O)NC9=O)nn(C)c8c7F)CC6)CC5)c4)cn4ncc(C#N)c34)cn2)CC1 (single isomer, unassigned) [Compound 138, 1-(5-(3-Cyano-6-(1-((1r, 4r)-4-(4-(3-(2,4-dioxotetrahydropyrimidin-1(2H)-yl)-7-fluoro-1-methyl-1H-indazol-6-yl)piperidin-1-yl)cyclohexyl)-1H-pyrazol-4-yl)pyrazolo[1,5-a]pyrazin-4-yl)pyridin-2-yl)-N-cyclobutyl-4-ethylpiperidine-4-carboxamide] | < 30 | < 100 | – | – | – | – | – | – | ++++ (<50 nM = ++++) | ++++ (<50 nM = ++++) | < 30 | < 50
CCC1(C(=O)NC(C)C)CCN(c2ccc(-c3nc(-c4cnn(C5CCN(C(=O)Cc6ccc(-c7ccc(NC8CCC(=O)NC8=O)cc7F)cc6)CC5)c4)cn4ncc(C#N)c34)cn2)CC1 (stereo not drawn) [Compound 89, 1-[5-[3-cyano-6-[1-[1-[2-[4-[4-[(2,6-dioxo-3-piperidyl)amino]-2-fluoro-phenyl]phenyl]acetyl]-4-piperidyl]pyrazol-4-yl]pyrazolo[1,5-a]pyrazin-4-yl]-2-pyridyl]-4-ethyl-N-isopropyl-piperidine-4-carboxamide] | < 50 | < 100 | – | – | – | – | – | – | ++++ (<50 nM = ++++) | ++++ (<50 nM = ++++) | < 30 | < 50
COCC1(Cc2ccccn2)CCN(c2ccc(-c3nc(-c4cnn(C5CCN(C(=O)CC6(O)CCN(c7ccc(NC8CCC(=O)NC8=O)cc7F)CC6)CC5)c4)cn4ncc(C#N)c34)cn2)CC1 (stereo not drawn) [Compound 114, 6-[1-[1-[2-[1-[4-[(2,6-dioxo-3-piperidyl)amino]-2-fluoro-phenyl]-4-hydroxy-4-piperidyl]acetyl]-4-piperidyl]pyrazol-4-yl]-4-[6-[4-(methoxymethyl)-4-(2-pyridylmethyl)-1-piperidyl]-3-pyridyl]pyrazolo[1,5-a]pyrazine-3-carbonitrile] | < 30 | < 50 | – | – | – | – | – | – | ++++ (<50 nM = ++++) | ++++ (<50 nM = ++++) | < 30 | < 50
